Data as given in EP0234113A1, “2,3-Dihydro-1H-phenalene-2-amino compounds as anti-psychotic drugs” (THE UPJOHN COMPANY, priority 1985, dated 1987).
Several values for one entry are separate records, joined by “and”; a condition that tells them apart may be missing. Equal values may be shown once. Entries after “also recorded” stand apart in the source; their conditions may differ. Read-outs that look alike come from different tables or passages of the source.

Legend:
plasma prolactin = test: Plasma prolactin; type: in vivo; conditions: cell marks this value (10), probably 10 mg/kg; Sprague-Dawley rat
body temperature = test: Hypothermia Test (effect on body temperature); type: in vivo, CF-1 male mice; conditions: either test: hypothermic or apomorphine antagonism
Method: (§1) The Effect on Body Temperature (Hypothermia) Test and the Antagonism of Apomorphone-Induced Case Climbing (ACC), (Apomorphine Gnawing Test) are described on page 1398 of the publication, Journal of Medicinal Chemistry, Vol. 22, No. 11, pp. 1390-1398, in an article entitled "6-Aryl-4H-s-triazolo[4,3-a][1,4]benzodiazepines....Action" by J. B. Hester, Jr., et al.
For the tests here, the Hypothermia Test procedure was run as follows:
A group of four CF-1 male mice (18-22 g each) was injected intraperitoneally with the test compound prepared in 0.25 percent w/v methylcellulose in water solution. After 45 min, abdominal temperature of each mouse was measured using a thermister probe. A control group of four mice was treated with vehicle only and the temperature of the control group was taken in a similar manner. A compound was considered to have a significant effect on body temperature if the mean temperature in the test compound treated group deviated more than 3.5°C from the mean temperature of the parallel control group. Stimulants tend to elevate temperatures; depressants tend to lower body temperature.

dopamine neurons [1] = test: Depression of dopamine neuron firing rates by the drug alone; type: in vivo, rats
Method: (§2) Table 2. Dopamine neuron firing rates were recorded according to published procedures and drugs were injected intravenously in chloral hydrate anesthetized rats. A. Ability of drugs to reverse the depression in firing rates of dopamine neurons by 1 to 2 mg/kg amphetamine. The maximum effect is the maximum amount of the amphetamine effect that was reversed, even when doses were increased beyond dose causing maximum effect. An effect greater than 100% indicates excitation of the neuron beyond its' control rate whereas an effect less than 100% indicates partial agonist effects. B. Depression of dopamine neurons by full agonist apomorphine and partial agonists TDHL, (-)PPP and U-64,273A. Maximum effect is maximum depression that could be realized even after increasing doses beyong the dose causing maximum effect. For both A and B, the ED50 is the dose causing 50% of the respective antagonistic (A) or agonist (B) effect.

Discrimination = test: Antagonism of apomorphine discrimination; type: in vivo; conditions: (p) = partial activity
Description: (§3) Table 3. […] A. Behavioral effects in the rat. B. Behavioral effects in the monkey. C. Doses required to antagonize the indicated behavioral effects of amphetamine. D. Doses required to antagonize the indicated behavioral effects of apomorphine.

dopamine neurons [2] = test: Reversal of amphetamine depression of dopamine neuron firing rates; type: in vivo, rats
Method: as §2, with “An effect greater than 100% indicates excitation of the neuron beyond its' control rate whereas an effect less than 100% indicates partial agonist effects.” left out

locomotor stimulation = test: Locomotor stimulation in reserpinized mice, drug given by itself; type: in vivo
Description: Consistant with its having a minor amount of agonist activity, the overall behavioral effects of U-64,273A conform to that of a weak DA antagonist (Table 3). […] When given by itself, U-64,273A affected locomotor activities in rodents in a way resembling both DA auto-receptor and postsynaptic receptor agonists.

[3] = tested on: dopamine metabolites HVA, DOPAC, and 3MT; test: Dopamine metabolites in rat brain; type: in vivo; conditions: percentage of control; 3 mg/kg of chlorpromazine, 30 mg/kg clozapine or U-64,273A; Sprague-Dawley rat
Emesis = test: Antagonism of apomorphine emesis; type: in vivo
Description: as §3

Stereotypy = test: Antagonism of apomorphine stereotypy; type: in vivo; conditions: i.a. = inactive, listed as U-64273A
Description: as §3

alpha-1 = test: Alpha-1 ligand binding, rat brain homogenates; conditions: 1μM, i.a. = inactive
locomotor activity [4] = test: Antagonism of amphetamine: locomotor activity; type: in vivo; conditions: i.a. = inactive
Description: as §3

locomotor activity [5] = test: Antagonism of apomorphine locomotor activity in rat; type: in vivo; conditions: i.a. = inactive
Description: as §3

Locomotor activity [6] = test: Antagonism of apomorphine locomotor activity in reserpinized mouse; type: in vivo
Description: as §3

Conditioned Avoidance = test: Conditioned avoidance; type: in vivo; conditions: rat; (p) = partial activity, i.a. = inactive
Description: as §3

Serotonin metabolites = Serotonin metabolites in rat brain; type: in vivo, Sprague-Dawley rat; conditions: percentage of control; 1 mg/kg haloperidol, 10 mg/kg of clozapine, 30 mg/kg U-64,273A
Catalepsy = test: Catalepsy; conditions: rat; i.a. = inactive
Description: as §3

muscarinic = test: Muscarinic ligand binding, rat brain homogenates; conditions: 1μM, - indicates ligand was displaced
LSD = LSD ligand binding, rat brain homogenates; conditions: 1μM, - indicates ligand was displaced
[7] = tested on: Apomorphone-Induced Case Climbing; test: Apomorphine antagonism (Apomorphine gnawing test; apomorphine-induced cage climbing); type: in vivo, Mouse; conditions: mouse
Description: as §1, §3

[8] = tested on: lethal dose of d-amphetamine; test: Antagonism of amphetamine toxicity; type: in vivo
Description: as §3

alpha-2 = test: Alpha-2 ligand binding, rat brain homogenates; conditions: 1μM, - indicates ligand was displaced
Dopamine (3H-spiperone) = test: Receptor Binding Assay with 3H-spiperone (Dopamine Binding Assay), rat brain homogenate; conditions: 1μM; rat brain homogenates; - indicates ligand was displaced
Method: The Receptor Binding Assay test for antipsychotic acitvity, was conducted as follows:
A rat brain homogenate was prepared (1) by homogenizing a whole rat brain minus the cerebellum in 10 ml of 0.05M THAM-HC1, pH 7.4, using a Polytron at a setting of 7 for 30 sec. and centrifuging at 15,000xg for 10 min. The supernatant was discarded, the pellet resuspended in 10 ml of buffer using the Polytron for 10 sec., and the centrifugation repeated. The pellet was resuspended and diluted to 100 times the original tissue weight with buffer. Then 100 ml of the homogenate was diluted to 400 ml with buffer.
The test drug was weighed out in a scintillation vial in a 1-5 mg ammount. They were dissolved by adding 0.5 ml of N-N-dimethylformamide of (DMF) and then 0.05 ml of 1M acetic acid, and vortexed to solubilize the drug. Then 10 ml of deionized and filtered water was added to the required volume. All compounds were tested at a single concentration of 1 uM.
Samples were prepared for incubation using an ^3H-spiperone (antipsychotic).
Incubation was conducted at 30°C for 30 min. on a shaking water bath. Every 30 sec., 24 tubes were filled with 1 ml of homogenate and put into the bath (this is done every 3 min. until all tubes are in the bath). Upon completion of the incubation procedure, the samples are filtered and rinsed.
The punched filters are dropped into vials, which are in turn filled with ACS liquid scintillation fluid and capped and counted in a liquid scintillation counter. Counting data is recorded and analyzed.
Results are expressed as percent decrease from control.

6-OH DA Turning = test: Antagonism of amphetamine: 6-OH DA turning; type: in vivo; conditions: i.a. = inactive
Description: as §3

[9] = dopamine neuron firing, Table 2

## CNC1Cc2cccc3cccc(c23)C1 [U-64,273A, 2,3-dihydro-N-mono-methyl-lH-phenalen-2-amine]
Plasma prolactin
  Plasma Prolactin: 1%
Body temperature
  active in either the hypothermic or the apomorphine antogonism test: active
Dopamine neurons [1]; Rattus norvegicus, Neuron, iv
  ED50: 0.07 mg/kg
Dopamine neurons [1]; Rattus norvegicus, Neuron, iv, read-out: MAXIMUM EFFECT (per cent decrease)
  Emax: 30%
Dopamine neurons [1]; [9]
  agonist share: 30%
Dopamine neurons [1]; rat, in vivo
  inhibition of DA neuronal firing when given alone (in words): weakly inhibit
Discrimination
  Monkey Discrimination, dose required to antagonize apomorphine: antagonized apomorphine
Dopamine neurons [2]; Rattus norvegicus, Neuron, iv
  ED50: 0.005 mg/kg
Dopamine neurons [2]; Rattus norvegicus, Neuron, iv, read-out: MAXIMUM EFFECT (per cent reversal)
  Emax: 69%
Dopamine neurons [2]; [9]
  antagonist share: 70%
Dopamine neurons [2]; intravenous, anesthetized rats
  reversal of amphetamine's depression of DA neuronal firing (in words): potent in reversing the effect of d-amphetamine on nigral DA neuronal firing; also recorded: not quite complete
Locomotor stimulation
  locomotor stimulation in reserpinized mice: no locomotor stimulation
[3]
  3MT: 50%
  DOPAC: 80%
Emesis
  Dog Emesis, dose required to antagonize apomorphine: antagonized apomorphine
Stereotypy
  Rat Stereotypy, dose required to antagonize apomorphine: i.a.
alpha-1
  alpha-1, percentage of ligand displaced: i.a.
Locomotor activity [4]
  RAT locomotor activity, dose required to antagonize amphetamine: i.a.
Locomotor activity [5]
  Locomotor activity, rat, dose required to antagonize apomorphine: i.a.
Locomotor activity [6]
  Locomotor activity, reserpinized mouse, 3 mg/kg (antag. of apomorphine): antagonized apomorphine
Locomotor activity [6]; listed as U-64273A
  Locomotor activity, reserpinized mouse, 3 mg/kg (antag. of apomorphine): 47% antag.
Conditioned Avoidance
  Conditioned Avoidance, active dose: suppressed conditioned avoidance behavior of rats with a limited efficacy
Serotonin metabolites
  5HIAA: 76%
  5HT: 128%
  5HTP: 37%
Catalepsy
  Catalepsy, active dose: i.a.
muscarinic
  muscarinic, percentage of ligand displaced: -11.7%
LSD
  LSD, percentage of ligand displaced: -67.3%
[7]
  Cage Climbing Mouse, dose required to antagonize apomorphine: antagonized apomorphine
[8]
  Mouse Toxicity, dose required to antagonize amphetamine: did not protect mice
alpha-2
  alpha-2, percentage of ligand displaced: -37.5%
Dopamine (3H-spiperone)
  spiperone, percentage of ligand displaced: relatively weak and -46.2%
6-OH DA Turning
  6-OH DA Turning, rat, dose required to antagonize amphetamine: antagonized d-amphetamine
